Legend:
Type in all cases: cell-based
[1] = tested on: SNB-19; experiment: NCI-60 cell line panel: SNB-19; conditions: CNS Cancer
Description: (§1) It was carried out at the NCI, Bethesda, MD, USA, utilizing their standard protocol.

[2] = tested on: CCRF-CEM; experiment: NCI-60 cell line panel: CCRF-CEM; conditions: Leukemia
Description: as §1

[3] = tested on: MCF7; experiment: NCI-60 cell line panel: MCF7; conditions: Breast Cancer
Description: as §1

[4] = tested on: NCI-H226; experiment: NCI-60 cell line panel: NCI-H226; conditions: Non-Small Cell Lung Cancer
Description: as §1

[5] = tested on: SK-MEL-28; experiment: NCI-60 cell line panel: SK-MEL-28; conditions: Melanoma
Description: as §1

[6] = tested on: HCT-15; experiment: NCI-60 cell line panel: HCT-15; conditions: Colon Cancer
Description: as §1

[7] = tested on: HL-60(TB); experiment: NCI-60 cell line panel: HL-60(TB); parameters: TGI: unit not given here; conditions: Leukemia
Description: as §1

[8] = tested on: OVCAR-5; experiment: NCI-60 cell line panel: OVCAR-5; conditions: Ovarian Cancer
Description: as §1

[9] = tested on: HS 578T; experiment: NCI-60 cell line panel: HS 578T
Description: as §1

[10] = tested on: ACHN; experiment: NCI-60 cell line panel: ACHN; conditions: Renal Cancer
Description: as §1

[11] = tested on: HT29; experiment: NCI-60 cell line panel: HT29
Description: as §1

[12] = tested on: BT-549; experiment: NCI-60 cell line panel: BT-549; conditions: Breast Cancer
Description: as §1

[13] = tested on: COLO 205; experiment: NCI-60 cell line panel: COLO 205; parameters: TGI: unit not given here; conditions: Colon Cancer
Description: as §1

[14] = tested on: HCC-2998; experiment: NCI-60 cell line panel: HCC-2998; conditions: Colon Cancer
Description: as §1

[15] = tested on: NCI-H23; experiment: NCI-60 cell line panel: NCI-H23; conditions: Non-Small Cell Lung Cancer
Description: as §1

[16] = tested on: SR; experiment: NCI-60 cell line panel: SR; conditions: Leukemia
Description: as §1

[17] = tested on: KM12; experiment: NCI-60 cell line panel: KM12; conditions: Colon Cancer
Description: as §1

[18] = tested on: SK-MEL-5; experiment: NCI-60 cell line panel: SK-MEL-5; conditions: Melanoma
Description: as §1

[19] = tested on: OVCAR-8; experiment: NCI-60 cell line panel: OVCAR-8; conditions: Ovarian Cancer
Description: as §1

[20] = tested on: MDA-MB-231/ATCC; experiment: NCI-60 cell line panel: MDA-MB-231/ATCC; conditions: Breast Cancer
Description: as §1

[21] = tested on: A498; experiment: NCI-60 cell line panel: A498; conditions: Renal Cancer
Description: as §1

[22] = tested on: NCI/ADR-RES; experiment: NCI-60 cell line panel: NCI/ADR-RES; parameters: TGI: unit not given here; conditions: Ovarian Cancer
Description: as §1

[23] = tested on: U251; experiment: NCI-60 cell line panel: U251; parameters: TGI: unit not given here
Description: as §1

[24] = tested on: SNB-75; experiment: NCI-60 cell line panel: SNB-75; parameters: TGI: unit not given here; conditions: CNS Cancer
Description: as §1

[25] = tested on: EKVX; experiment: NCI-60 cell line panel: EKVX; conditions: Non-Small Cell Lung Cancer
Description: as §1

[26] = tested on: SK-MEL-2; experiment: NCI-60 cell line panel: SK-MEL-2; parameters: TGI: unit not given here; conditions: Melanoma
Description: as §1

[27] = tested on: Hep3B; experiment: MTT assay, Hep3B HCC cell line; conditions: Homo sapiens, 48 h, mean of triplicate assays ± SEM
Description: Two HCC cell lines (Hep3B and HepG2) were used for screening the antiproliferative activity of the synthesized compounds. The cell lines were obtained from the European Collection of Cell Cultures (ECACC, UK) and maintained in Dulbecco's Modified Eagle Medium (DMEM: Sigma-Aldrich) supplemented with 10% fetal bovine serum (FBS) and 1% penicillin/streptomycin and incubated at 37° C. in a 5% CO2 air atmosphere. In addition, WI-38 normal cell line was used to investigate the safety of these compounds.
MTT assay was conducted to calculate the IC50 of the compounds following the reported procedure . Briefly, the cells were seeded in 96-well tissue culture plates with a density of 5×10^4 cells/well and incubated overnight at 37° C. in a 5% CO2 air atmosphere. […] DMSO was used as a negative control. After 48 h, the media were aspirated, and replaced with media containing 0.5 mg/mL of MTT tetrazolium dye (Sigma-Aldrich) for 2 h at 37° C. Finally, the media were removed and 200 μL of DMSO was added to solubilize the formazan crystals. Absorbance was then measured at 570 nm using Varioskan Flash multimode plate reader (Thermo Scientific, Massachusetts, USA).

[28] = tested on: SN12C; experiment: NCI-60 cell line panel: SN12C; conditions: Renal Cancer
Description: as §1

[29] = tested on: RXF 393; experiment: NCI-60 cell line panel: RXF 393; conditions: Renal Cancer
Description: as §1

[30] = tested on: UACC-62; experiment: NCI-60 cell line panel: UACC-62; conditions: Melanoma
Description: as §1

[31] = tested on: 786-0; experiment: NCI-60 cell line panel: 786-0; conditions: Renal Cancer
Description: as §1

[32] = tested on: MALME-3M; experiment: NCI-60 cell line panel: MALME-3M; conditions: Melanoma
Description: as §1

[33] = tested on: OVCAR-3; experiment: NCI-60 cell line panel: OVCAR-3; conditions: Ovarian Cancer
Description: as §1

[34] = total growth inhibition, in µM (unit assumed)

**Q.** Which TGI ([1]; total growth inhibition) does the source give for CCN1CCN(c2ccc(NC(=O)Nc3ccc(-c4cc(C(=O)NC(C)C)c5ncccc5n4)cc3)cc2C(F)(F)F)CC1 [Compound 13f, 2-(4-(3-(4-(4-Ethylpiperazin-1-yl)-3-(trifluoromethyl)phenyl)ureido)phenyl)-N-isopropyl-1,5-naphthyridine-4-carboxamide] here?
**A.** 9.12 µM

**Q.** What about the IC50 ([1]; Homo sapiens) of the same compound?
**A.** 4.24 µM

**Q.** And the IC50 ([2]; Homo sapiens)?
**A.** 1.01 µM

**Q.** And the TGI ([2]; total growth inhibition)?
**A.** 3.1 µM

**Q.** And the TGI ([3]; total growth inhibition)?
**A.** 1.5 µM

**Q.** What about the IC50 ([3]; Homo sapiens) of the same compound?
**A.** 0.63 µM

**Q.** And the IC50 ([4]; Homo sapiens)?
**A.** 5.02 µM

**Q.** And the TGI ([4]; total growth inhibition)?
**A.** 12.5 µM

**Q.** And the IC50 ([5]; Homo sapiens)?
**A.** 0.75 µM

**Q.** And the TGI ([5]; total growth inhibition)?
**A.** 1.85 µM

**Q.** And the TGI ([6]; total growth inhibition)?
**A.** 1.35 µM

**Q.** What about the IC50 ([6]; Homo sapiens) of the same compound?
**A.** 0.67 µM

**Q.** What about the IC50 ([7]; Homo sapiens) of the same compound?
**A.** 1.07 µM

**Q.** What about the TGI ([7]; total growth inhibition) of the same compound?
**A.** 5.89

**Q.** And the IC50 ([8]; Homo sapiens)?
**A.** 1.6 µM

**Q.** And the TGI ([8]; total growth inhibition)?
**A.** 6.09 µM

**Q.** What about the TGI ([9]; Breast Cancer, HS 578T, total growth inhibition) of the same compound?
**A.** 3.45 µM

**Q.** What about the IC50 ([9]; Homo sapiens, Hs-578T) of the same compound?
**A.** 0.88 µM

**Q.** And the IC50 ([10]; Homo sapiens)?
**A.** 1.02 µM

**Q.** And the TGI ([10]; total growth inhibition)?
**A.** 3.47 µM

**Q.** And the TGI ([11]; Colon Cancer, total growth inhibition)?
**A.** 1.32 µM

**Q.** What about the IC50 ([11]; Homo sapiens, HT-29, Colon Cancer) of the same compound?
**A.** 0.67 µM

**Q.** And the TGI ([12]; total growth inhibition)?
**A.** 9.57 µM

**Q.** What about the IC50 ([12]; Homo sapiens) of the same compound?
**A.** 4.83 µM

**Q.** What about the TGI ([13]; total growth inhibition) of the same compound?
**A.** 2.71

**Q.** What about the IC50 ([13]; Homo sapiens) of the same compound?
**A.** 0.93 µM

**Q.** And the TGI ([14]; total growth inhibition)?
**A.** 5.09 µM

**Q.** And the IC50 ([14]; Homo sapiens)?
**A.** 1.44 µM

**Q.** What about the IC50 ([15]; Homo sapiens) of the same compound?
**A.** 2.05 µM

**Q.** What about the TGI ([15]; total growth inhibition) of the same compound?
**A.** 7.27 µM

**Q.** And the IC50 ([16]; Homo sapiens)?
**A.** 1.05 µM

**Q.** What about the TGI ([16]; total growth inhibition) of the same compound?
**A.** 12.1 µM

**Q.** What about the TGI ([17]; total growth inhibition) of the same compound?
**A.** 2.91 µM

**Q.** What about the IC50 ([17]; Homo sapiens) of the same compound?
**A.** 1.01 µM

**Q.** What about the IC50 ([18]; Homo sapiens) of the same compound?
**A.** 1.41 µM

**Q.** And the TGI ([18]; total growth inhibition)?
**A.** 5.28 µM

**Q.** What about the IC50 ([19]; Homo sapiens) of the same compound?
**A.** 5.69 µM

**Q.** What about the TGI [19, 34] of the same compound?
**A.** 17.5

**Q.** What about the TGI ([20]; total growth inhibition) of the same compound?
**A.** 1.18 µM

**Q.** And the IC50 ([20]; Homo sapiens)?
**A.** 0.61 µM

**Q.** And the IC50 ([21]; Homo sapiens)?
**A.** 5.11 µM

**Q.** And the TGI ([21]; total growth inhibition)?
**A.** 9.7 µM

**Q.** What about the IC50 ([22]; Homo sapiens) of the same compound?
**A.** 3.66 µM

**Q.** What about the TGI ([22]; total growth inhibition) of the same compound?
**A.** 10.00

**Q.** What about the TGI ([23]; CNS Cancer, total growth inhibition) of the same compound?
**A.** 4.82

**Q.** And the IC50 ([23]; Homo sapiens, U-251, CNS Cancer)?
**A.** 1.24 µM

**Q.** What about the TGI ([24]; total growth inhibition) of the same compound?
**A.** 5.14

**Q.** And the IC50 ([24]; Homo sapiens)?
**A.** 0.98 µM

**Q.** What about the IC50 ([25]; Homo sapiens) of the same compound?
**A.** 1.61 µM

**Q.** What about the TGI [25, 34] of the same compound?
**A.** 5.82

**Q.** And the IC50 ([26]; Homo sapiens)?
**A.** 4.82 µM

**Q.** And the TGI ([26]; total growth inhibition)?
**A.** 9.89

**Q.** And the IC50 [27]?
**A.** 1.09 ± 0.14 µM

**Q.** What about the IC50 ([28]; Homo sapiens) of the same compound?
**A.** 0.67 µM

**Q.** What about the TGI ([28]; total growth inhibition) of the same compound?
**A.** 1.38 µM

**Q.** And the IC50 ([29]; Homo sapiens)?
**A.** 0.65 µM

**Q.** What about the TGI ([29]; total growth inhibition) of the same compound?
**A.** 1.73 µM

**Q.** What about the IC50 ([30]; Homo sapiens) of the same compound?
**A.** 3.99 µM

**Q.** And the TGI ([30]; total growth inhibition)?
**A.** 8.28 µM

**Q.** What about the IC50 ([31]; Homo sapiens) of the same compound?
**A.** 0.5 µM

**Q.** And the TGI ([31]; total growth inhibition)?
**A.** 1.03 µM

**Q.** What about the IC50 ([32]; Homo sapiens) of the same compound?
**A.** 0.58 µM

**Q.** What about the TGI [32, 34] of the same compound?
**A.** 1.05

**Q.** What about the IC50 ([33]; Homo sapiens) of the same compound?
**A.** 0.64 µM

**Q.** What about the TGI ([33]; total growth inhibition) of the same compound?
**A.** 1.36 µM

Source: patent US20240308996A1, “PYRIDOPYRIDINES AND DERIVATIVES THEREOF AS SELECTIVE KINASE INHIBITORS” (University of Sharjah, priority 2023, published 2024)
